{"source": "patent US20250378953A1", "about": "“ORGAN DIGITAL TWIN SYSTEMS AND METHODS FOR CREATING AND USING SUCH SYSTEMS” (Yale University, priority 2022, published 2025)", "tested_on": "porcine kidney", "excerpt": "For the ex vivo normothermic perfusion of kidneys, data pertaining to the hemodynamics of the kidney were collected and monitored: kidney mass, urine output, arterial flow, arterial pressure, pump speed, hematocrit, and arterial oxygen saturation. To accomplish this, ZP-50N digital force gauges by Baoshishan were used to measure kidney mass and urine output; a Medtronic Bio-console device to measure flow, pressure, and pump speed; and a Medtronic Bio-trend device to measure hematocrit and oxygen saturation.\nData collection from these sensors was standardized at a rate of 0.2 Hz (approximately a data point every five seconds) and integrated via an open-source software written in Python. […] The act of collecting data from each sensor simultaneously presented a unique challenge in that a typical computer program is sequential in its execution, meaning that data collection from one sensor should not be able to occur until collection from another sensor is finished. Furthermore, the runtime complexity of the code block associated with each sensor meant that data collection from one sensor could potentially interfere with the collection from another, and vice-versa. To circumvent these issues, the code blocks for each sensor were run in separate threads using the Python threading library. This allowed each code block to be executed simultaneously in parallel (as opposed to sequentially in series), meaning data collection from one sensor was independent of data collection from all other sensors. After the data was extracted, the code block for each sensor transformed the data string by removing superfluous characters and converting the pertinent data into a float format. To upload the transformed data to the Azure cloud database the sys, platform, and pyodbc libraries were used to communicate with the edge device and establish a database connection using an SQL driver.\nThe “Blood gas data upload” feature allows one to manually input data collected from perfusate analysis assays. For our perfusion experiment, CG8+ and Renal Function Panel cartridges were used with iStat and Piccolo devices, respectively; however, the software can easily be modified to accommodate other perfusate assays.\nHistamine was administered at two different time-points during the perfusion.", "note": "Where two headings read alike, the source gives them in different places.", "data": [{"compound": "NCCc1c[nH]cn1", "note": "[histamine]", "values": [{"measurement": "arterial flow after histamine", "setting": "40 mg histamine on the arterial side at 240 minutes of perfusion", "value": "Flow immediately stopped"}, {"measurement": "arterial flow after histamine", "setting": "100 mg histamine on the arterial side at 90 minutes of perfusion", "value": "immediate halt of flow"}, {"measurement": "time until flow normalized", "setting": "after 40 mg histamine at 240 minutes, pump RPM slowly increased to 1900, no heparin", "value": 30, "unit": "min"}, {"measurement": "time until flow increased and arterial pressure normalized", "setting": "after 100 mg histamine at 90 min, heparin at 120 minute, pump RPM 2000", "value": "≤ 60", "unit": "min"}, {"measurement": "arterial pressure while flow slowly returned", "setting": "after 100 mg histamine at 90 min, 20k units heparin added at 120 minute, pump RPM increased to 2000, starting arterial pressure 15 mmHg", "value": "40-60 mmHg"}, {"measurement": "kidney weight after flow and pressures normalized", "setting": "after first histamine administration, weight before histamine approximately 0.26 Kg", "value": "0.27 to 0.28", "unit": "kg"}, {"measurement": "kidney weight after histamine (manual recordings)", "setting": "after histamine at 90 minutes, weight before approximately 0.26 Kg", "value": "approximately 0.24 Kg"}, {"measurement": "arterial pressure immediately after histamine", "setting": "arterial administration of histamine", "value": "immediately increased"}, {"measurement": "urine production (qualitative observation)", "setting": "first histamine administration at 90 minutes", "value": "initiate after the first histamine administration"}]}]}
